A short description of data set [1]: Paal-Knorr pyrrole formation between a side-chain 1,4-diketone (DOP1, unmasked from 5-methylfuran in TFA/m-cresol 9:1) and a side-chain hydrazide (Nu2) or aminooxy group (Nu5); crude redissolved in mQ water. To be noted: the molecule shown is the open-chain precursor, pH ~2.5, 5.0 mM.
Data set [2] can be described thus: Paal-Knorr-like closure of a side-chain 1,4-diketone (DOP, unmasked from 5-substituted furan in TFA/m-cresol 9:1) with a side-chain alkylhydrazine (Nu1), then air oxidation to a pyridazinium staple; crude redissolved in mQ water, pH adjusted to ~7.5. To be noted: the molecule shown is the open-chain precursor, pH ~7.5, 5.0 mM.

Results on eleven compounds are retold here after PMC10510716.

The structures appear in SMILES notation.

As for `CC[C@H](C)[C@H](NC(=O)[C@H](CCCNC(=O)CCC(=O)CCC(C)=O)NC(=O)[C@H](CCCNC(=N)N)NC(=O)CNC(=O)[C@H](CCCCN)NC(=O)[C@H](CC(C)C)NC(=O)[C@H](Cc1c[nH]cn1)NC(=O)CNC(=O)[C@@H]1CCCN1C(C)=O)C(=O)NCC(=O)N[C@@H](CC(C)C)C(=O)N[C@@H](Cc1c[nH]c2ccccc12)C(=O)N[C@@H](Cc1ccc(O)cc1)C(=O)N[C@@H](C)C(=O)N[C@@H](CCCNC(=O)CON)C(=O)N[C@@H](CCCCN)C(=O)N[C@@H](CCC(N)=O)C(=O)NCC(=O)N[C@@H](CCC(N)=O)C(=O)N[C@@H](CCCCN)C(=O)N[C@@H](CC(N)=O)C(=O)N[C@@H](CCCCN)C(N)=O`, the ring closure, overall yield in data set [1] (38-membered ring) was 13.9%.
With `CC(=O)CCC(=O)CCC(=O)NCCC[C@H](NC(=O)[C@H](Cc1ccc(O)cc1)NC(C)=O)C(=O)N[C@@H](CCCNC(=N)N)C(=O)NCC(=O)N[C@@H](CC(=O)O)C(=O)N[C@@H](CCCNC(=O)CCC(=O)NN)C(=O)N[C@@H](CO)C(=O)N[C@@H](Cc1c[nH]c2ccccc12)C(N)=O`, in data set [1] (31-membered ring), the ring closure, overall yield is 2.3%.
The same measure, in the same setting: in the case of `CC[C@H](C)[C@H](NC(=O)[C@H](CCC(=O)O)NC(=O)[C@H](CCCNC(=N)N)NC(=O)CNC(=O)[C@H](CCCCN)NC(=O)[C@H](CC(C)C)NC(=O)[C@H](Cc1c[nH]cn1)NC(=O)CNC(=O)[C@@H]1CCCN1C(C)=O)C(=O)NCC(=O)N[C@@H](CC(C)C)C(=O)N[C@@H](Cc1c[nH]c2ccccc12)C(=O)N[C@@H](Cc1ccc(O)cc1)C(=O)N[C@@H](C)C(=O)N[C@@H](CCCNC(=O)CCC(=O)NN)C(=O)N[C@@H](CCCCN)C(=O)N[C@@H](CCC(N)=O)C(=O)NCC(=O)N[C@@H](CCCNC(=O)CCC(=O)CCC(C)=O)C(=O)N[C@@H](CCCCN)C(=O)N[C@@H](CC(N)=O)C(=O)N[C@@H](CCCCN)C(N)=O` it was 8.24%.
`CC[C@H](C)[C@H](NC(=O)[C@H](CCCNC(=O)CCC(=O)CCC(C)=O)NC(=O)[C@H](CCCNC(=N)N)NC(=O)CNC(=O)[C@H](CCCCN)NC(=O)[C@H](CC(C)C)NC(=O)[C@H](Cc1c[nH]cn1)NC(=O)CNC(=O)[C@@H]1CCCN1C(C)=O)C(=O)NCC(=O)N[C@@H](CC(C)C)C(=O)N[C@@H](Cc1c[nH]c2ccccc12)C(=O)N[C@@H](Cc1ccc(O)cc1)C(=O)N[C@@H](C)C(=O)N[C@@H](CCCNC(=O)CCC(=O)NN)C(=O)N[C@@H](CCCCN)C(=O)N[C@@H](CCC(N)=O)C(=O)NCC(=O)N[C@@H](CCC(N)=O)C(=O)N[C@@H](CCCCN)C(=O)N[C@@H](CC(N)=O)C(=O)N[C@@H](CCCCN)C(N)=O` gave a ring closure, overall yield in data set [1] (40-membered ring) of 12.6%.
With `CC(=O)CCC(=O)CCC(=O)NCCC[C@H](NC(=O)[C@H](Cc1ccc(O)cc1)NC(C)=O)C(=O)N[C@@H](CCCNC(=N)N)C(=O)NCC(=O)N[C@@H](CC(=O)O)C(=O)N[C@@H](CCCNC(=O)CON)C(=O)N[C@@H](CO)C(=O)N[C@@H](Cc1c[nH]c2ccccc12)C(N)=O` [Ac-Y-Orn(4,7-dioxooctanoyl)*-R-G-D-Orn(COCH2ONH2)*-S-W-NH2], the ring closure, overall yield in data set [1] (29-membered ring) was 8.1%.
In turn, `CC(=O)CCC(=O)CCC(=O)NCCC[C@H](NC(C)=O)C(=O)N[C@@H](Cc1c[nH]c2ccccc12)C(=O)N[C@@H](CCCNC(=N)N)C(=O)NCC(=O)N[C@@H](CC(=O)O)C(=O)N[C@@H](Cc1ccc(O)cc1)C(=O)N[C@@H](CO)C(=O)N[C@@H](CCCNC(=O)CON)C(N)=O` [Ac-Orn(4,7-dioxooctanoyl)*-W-R-G-D-Y-S-Orn(COCH2ONH2)*-NH2] had a ring closure, overall yield in data set [1] (38-membered ring) of 5.2%.
In data set [2] (38-membered ring), `COc1ccc(C(=O)CCC(=O)CCC(=O)NCCC[C@H](NC(C)=O)C(=O)N[C@@H](Cc2c[nH]c3ccccc23)C(=O)N[C@@H](CCCNC(=N)N)C(=O)NCC(=O)N[C@@H](CC(=O)O)C(=O)N[C@@H](Cc2ccc(O)cc2)C(=O)N[C@@H](CO)C(=O)N[C@@H](CCCNC(=O)CNN)C(N)=O)cc1` registered a ring closure, overall yield of 13.9%.
Compound `CC[C@H](C)[C@H](NC(=O)[C@H](CCC(=O)O)NC(=O)[C@H](CCCNC(=N)N)NC(=O)CNC(=O)[C@H](CCCCN)NC(=O)[C@H](CC(C)C)NC(=O)[C@H](Cc1c[nH]cn1)NC(=O)CNC(=O)[C@@H]1CCCN1C(C)=O)C(=O)NCC(=O)N[C@@H](CC(C)C)C(=O)N[C@@H](Cc1c[nH]c2ccccc12)C(=O)N[C@@H](Cc1ccc(O)cc1)C(=O)N[C@@H](C)C(=O)N[C@@H](CCCNC(=O)CNN)C(=O)N[C@@H](CCCCN)C(=O)N[C@@H](CCC(N)=O)C(=O)NCC(=O)N[C@@H](CCCNC(=O)CCC(=O)CCC(C)=O)C(=O)N[C@@H](CCCCN)C(=O)N[C@@H](CC(N)=O)C(=O)N[C@@H](CCCCN)C(N)=O` yielded a ring closure, overall yield in data set [2] (29-membered ring) of 18.2%.
For `CC[C@H](C)[C@H](NC(=O)[C@H](CCC(=O)O)NC(=O)[C@H](CCCNC(=N)N)NC(=O)CNC(=O)[C@H](CCCCN)NC(=O)[C@H](CC(C)C)NC(=O)[C@H](Cc1c[nH]cn1)NC(=O)CNC(=O)[C@@H]1CCCN1C(C)=O)C(=O)NCC(=O)N[C@@H](CC(C)C)C(=O)N[C@@H](Cc1c[nH]c2ccccc12)C(=O)N[C@@H](Cc1ccc(O)cc1)C(=O)N[C@@H](C)C(=O)N[C@@H](CCCNC(=O)CON)C(=O)N[C@@H](CCCCN)C(=O)N[C@@H](CCC(N)=O)C(=O)NCC(=O)N[C@@H](CCCNC(=O)CCC(=O)CCC(C)=O)C(=O)N[C@@H](CCCCN)C(=O)N[C@@H](CC(N)=O)C(=O)N[C@@H](CCCCN)C(N)=O`, the ring closure, overall yield in data set [1] (29-membered ring) was found to be 3.48%.
With `CC(=O)CCC(=O)CCC(=O)NCCC[C@H](NC(C)=O)C(=O)N[C@@H](Cc1c[nH]c2ccccc12)C(=O)N[C@@H](CCCNC(=N)N)C(=O)NCC(=O)N[C@@H](CC(=O)O)C(=O)N[C@@H](Cc1ccc(O)cc1)C(=O)N[C@@H](CO)C(=O)N[C@@H](CCCNC(=O)CCC(=O)NN)C(N)=O`, the ring closure, overall yield in data set [1] (40-membered ring) was 4.3%.
In data set [2] (29-membered ring), `CC[C@H](C)[C@H](NC(=O)[C@H](CCCNC(=O)CNN)NC(=O)c1ccc(NC(C)=O)cc1)C(=O)N[C@@H](C)C(=O)N[C@@H](C)C(=O)N[C@@H](CC(C)C)C(=O)N[C@@H](CCCCN)C(=O)N[C@@H](CCC(=O)O)C(=O)N[C@@H](CCCCN)C(=O)N[C@H](C(=O)N[C@@H](CCCNC(=O)CNN)C(=O)N[C@@H](C)C(=O)N[C@@H](CC(C)C)C(=O)N[C@@H](CCCCN)C(=O)N[C@@H](CCCNC(=O)CCC(=O)CCC(C)=O)C(=O)N[C@@H](CCCCN)C(=O)N[C@H](C(=O)N[C@@H](C)C(=O)N[C@@H](C)C(=O)N[C@@H](CC(C)C)C(=O)N[C@@H](CCCCN)C(=O)N[C@@H](CCC(=O)O)C(N)=O)[C@@H](C)CC)[C@@H](C)CC` registered a ring closure, overall yield of 6.2%.
